The subject of series [1] is HepG2-ARE-C8. Nature of the series: Cytotoxicity against human HepG2-ARE-C8 cells assessed as reduction in cell viability at 5 and 20 uM measured for 24 hrs by MTT assay. It counts as functional, cell-based.
For another series, the target named is Cholinesterase (Equus caballus, UniProt P81908). Nature of the series: Inhibition of equine serum BuChE using ATC and BTC iodide as substrate preincubated for 5 mins followed by substrate addition and measured after 2 mins by DTNB reagent based assay.
The target in series [2] is Acetylcholinesterase (Electrophorus electricus, UniProt O42275). Nature of the series: Inhibition of electric eel AChE using ATC and BTC iodide as substrate preincubated for 5 mins followed by substrate addition and measured after 2 mins by DTNB reagent based assay.
Series [3] deals with HepG2-ARE-C8. Nature of the series: Activation of Nrf2-ARE pathway in human HepG2-ARE-C8 cells at 20 uM measured for 24 hrs by ARE-luciferase assay. Conditions: filed as activator. It is filed as cell-based.
The target in series [4] is Acetylcholinesterase (Homo sapiens, UniProt P22303). Nature of the series: Inhibition of human AChE using ATC and BTC iodide as substrate preincubated for 5 mins followed by substrate addition and measured after 2 mins by DTNB reagent based assay.
The test system of series [5] is Mus musculus. Nature of the series: Antialzheimer activity against Abeta1-42-induced cognitive impairment ICR mouse model assessed as increase in escape latency at 10 mg/kg, IG administered for 3 to 14 days and measured after 9 to 14 days in presence of donepezil by Morris water maze test. It counts as functional, organism-based. The note with it: time 9-14 day.
Series [6] concerns Mus musculus. Description: Antialzheimer activity against Abeta1-42-induced cognitive impairment ICR mouse model assessed as increase in arrival time at 10 mg/kg, IG administered for 3 to 14 days and measured after 9 to 14 days in presence of donepezil by Morris water maze test. Conditions: time 9-14 day. It is filed as functional, organism-based.
Series [7] relates to Mus musculus. Description: Antialzheimer activity against Abeta1-42-induced cognitive impairment ICR mouse model assessed as increase in distance to reach target at 10 mg/kg, IG administered for 3 to 14 days and measured after 9 to 14 days in presence of donepezil by Morris water maze test. It counts as functional, organism-based. Conditions: time 9-14 day.
Series [8] relates to Mus musculus. Nature of the series: Cognitive enhancing effect in amyloid beta (1 to 42)-induced ICR mouse model assessed as increase in ACh level at 20 mg/kg […] in presence of donepezil by ELISA. It counts as functional, organism-based.
In series [9] the test system is Mus musculus. Nature of the series: Antialzheimer activity against Abeta1-42-induced cognitive impairment ICR mouse model assessed as confuse escape tracks at 10 mg/kg, IG administered for 3 to 14 days and measured after 9 to 14 days in presence of donepezil by Morris water maze test. It is filed as functional, organism-based. The note with it: time 9-14 day.
Compound in series [10]: Cc1ccc(-c2noc(-c3cccc(OCC4CCN(Cc5cccc(F)c5)CC4)c3)n2)cn1
Nature of the series: Non-competitive inhibition of human AChE assessed as decrease in substrate Vmax with constant Km by Lineweaver-Burk plot analysis.

Activity calls are given as the source filed them. The rule behind the calls is not given here.

Sequence of Acetylcholinesterase (Electrophorus electricus, UniProt O42275) (O42275 whole entry): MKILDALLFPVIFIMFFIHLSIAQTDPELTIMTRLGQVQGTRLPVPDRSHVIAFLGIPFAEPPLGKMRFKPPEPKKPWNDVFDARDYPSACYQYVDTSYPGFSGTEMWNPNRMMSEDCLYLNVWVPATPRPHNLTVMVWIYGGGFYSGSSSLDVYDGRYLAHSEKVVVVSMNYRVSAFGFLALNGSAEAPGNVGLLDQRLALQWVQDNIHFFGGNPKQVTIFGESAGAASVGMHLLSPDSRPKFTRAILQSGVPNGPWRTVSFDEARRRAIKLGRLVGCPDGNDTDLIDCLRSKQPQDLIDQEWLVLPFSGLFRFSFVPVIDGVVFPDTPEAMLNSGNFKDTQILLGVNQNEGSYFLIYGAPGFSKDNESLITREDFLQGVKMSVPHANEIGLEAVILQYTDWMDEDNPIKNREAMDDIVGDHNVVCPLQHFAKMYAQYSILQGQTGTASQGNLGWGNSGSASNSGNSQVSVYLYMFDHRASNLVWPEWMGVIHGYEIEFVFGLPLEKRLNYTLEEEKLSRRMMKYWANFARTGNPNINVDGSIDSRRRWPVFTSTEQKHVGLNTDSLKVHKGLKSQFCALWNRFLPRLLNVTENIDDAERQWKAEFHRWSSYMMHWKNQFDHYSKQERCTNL
Sequence of Cholinesterase (P81908 whole entry): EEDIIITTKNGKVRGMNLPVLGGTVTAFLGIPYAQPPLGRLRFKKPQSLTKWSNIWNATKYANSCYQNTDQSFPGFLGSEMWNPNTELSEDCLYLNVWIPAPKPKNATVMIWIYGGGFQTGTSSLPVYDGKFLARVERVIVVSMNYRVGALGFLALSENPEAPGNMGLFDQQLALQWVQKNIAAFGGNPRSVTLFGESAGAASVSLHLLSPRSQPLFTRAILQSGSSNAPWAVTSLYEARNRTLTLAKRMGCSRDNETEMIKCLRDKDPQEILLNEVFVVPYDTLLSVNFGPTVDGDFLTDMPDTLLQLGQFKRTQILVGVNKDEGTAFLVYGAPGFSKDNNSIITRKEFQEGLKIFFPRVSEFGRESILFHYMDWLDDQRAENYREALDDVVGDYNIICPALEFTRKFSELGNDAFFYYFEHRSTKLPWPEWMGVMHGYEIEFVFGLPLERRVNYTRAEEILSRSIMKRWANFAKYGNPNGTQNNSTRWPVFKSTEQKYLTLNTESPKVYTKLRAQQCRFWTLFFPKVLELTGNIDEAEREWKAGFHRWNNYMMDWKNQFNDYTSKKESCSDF

As to `Cc1ccc(-c2noc(-c3cccc(OCC4CCCN(C(=O)c5ccc(F)cc5)C4)c3)n2)cn1` (configuration not stated), the result in the series on HepG2-ARE-C8 [1] was inactive. Further, the IC50 on Cholinesterase was 5.78 µM; on Acetylcholinesterase [2] it was 4.37 µM.
For `Cc1ccc(-c2noc(-c3cccc(OCC4CCN(Cc5ccc(Cl)o5)CC4)c3)n2)cn1`, in that order: “inactive”, more than 100 µM and 2 µM.
Take `Cc1ccc(-c2noc(-c3cccc(OCC4CCN(Cc5ccc(C)c(C)c5)CC4)c3)n2)cn1`: the result in the series with HepG2-ARE-C8 [1] was inactive. Besides, the values for the IC50 on Cholinesterase and against Acetylcholinesterase [2] were more than 100 µM and 5.64 µM, respectively.
On to `Cc1ccc(CN2CCCC(COc3cccc(-c4nc(-c5ccc(C)nc5)no4)c3)C2)cc1` (configuration not stated), for which, in the series with HepG2-ARE-C8 [1], the result was inactive. Moreover, the values for the concentration for half-maximal inhibition (IC50) against Cholinesterase and against Acetylcholinesterase [2] were more than 100 µM and 5.39 µM, respectively.
As to `Cc1ccc(-c2noc(-c3cccc(OCC4CCN(Cc5ccc(Cl)cc5)CC4)c3)n2)cn1`, the result in the series on HepG2-ARE-C8 [1] was inactive. In addition, the IC50 against Cholinesterase and against Acetylcholinesterase [2] was more than 100 µM throughout.
Take `Cc1ccc(-c2noc(-c3cccc(OCC4CCN(Cc5ccc(Br)cc5)CC4)c3)n2)cn1`: in the series on HepG2-ARE-C8 [1], the result was inactive. Besides, the IC50 against Cholinesterase and against Acetylcholinesterase [2] was more than 100 µM in each case.
Take `Cc1ccc(-c2noc(-c3cccc(OCC4CCN(Cc5ccc(C(F)(F)F)cc5)CC4)c3)n2)cn1`: in the series with HepG2-ARE-C8 [1], the outcome was inactive. Also, the outcome in the series on HepG2-ARE-C8 [3] was Active. Besides, the IC50 against Cholinesterase and at Acetylcholinesterase [2] was more than 100 µM throughout.
Regarding `Cc1ccc(-c2noc(-c3cccc(OCC4CCN(C(=O)c5ccc(F)cc5)CC4)c3)n2)cn1`, the result with HepG2-ARE-C8 [1] was inactive. Also, the half-inhibitory concentration (IC50) on Cholinesterase and at Acetylcholinesterase [2] was more than 100 µM in each case.
Consider `Cc1ccc(-c2noc(-c3cccc(OCC4CCN(Cc5ccco5)CC4)c3)n2)cn1`, for which, in the series on HepG2-ARE-C8 [1], the result was inactive. Further, the results for the IC50 on Cholinesterase and against Acetylcholinesterase [2] were more than 100 µM and 2.53 µM, respectively.
`Cc1ccc(-c2noc(-c3cccc(OCC4CCN(Cc5ccc(F)cc5)CC4)c3)n2)cn1`: the result in the series on HepG2-ARE-C8 [1] was inactive. In addition, the figures for the IC50 against Acetylcholinesterase [4], against Cholinesterase and against Acetylcholinesterase [2] were 2.99 µM, 1.36 µM and 0.56 µM, respectively.
Regarding `Cc1ccc(-c2noc(-c3cccc(OCC4CCCN(Cc5ccccc5)C4)c3)n2)cn1` (configuration not stated), the result in the series with HepG2-ARE-C8 [1] was inactive. Besides, the figures for the IC50 against Cholinesterase and against Acetylcholinesterase [2] were 2.78 µM and 6.46 µM, respectively.
Regarding `Cc1ccc(-c2noc(-c3cccc(OCC4CCN(Cc5ccc(C(C)(C)C)cc5)CC4)c3)n2)cn1`, the outcome with HepG2-ARE-C8 [1] was inactive. Further, the outcome with HepG2-ARE-C8 [3] was Active. In addition, the half-maximal inhibitory concentration (IC50) against Cholinesterase and at Acetylcholinesterase [2] was more than 100 µM each time.
For `Cc1ccc(-c2noc(-c3cccc(OCC4CCN(Cc5ccncc5)CC4)c3)n2)cn1`, the outcome with HepG2-ARE-C8 [1] was inactive. For the same molecule, the values for the IC50 on Cholinesterase and against Acetylcholinesterase [2] were more than 100 µM and 16.8 µM, respectively.
On to `Cc1ccc(-c2noc(-c3cccc(OCC4CCCN(Cc5ccc(F)cc5)C4)c3)n2)cn1` (configuration not stated), for which the outcome in the series on HepG2-ARE-C8 [1] was inactive. Further, the IC50 was 4.28 µM against Cholinesterase and more than 100 µM against Acetylcholinesterase [2].
The corresponding values for `COc1ccc(CN2CCC(COc3cccc(-c4nc(-c5ccc(C)nc5)no4)c3)CC2)cc1` are “inactive”, more than 100 µM and more than 100 µM.
On to `Cc1ccc(CN2CCC(COc3cccc(-c4nc(-c5ccc(C)nc5)no4)c3)CC2)cc1`, for which, in the series with HepG2-ARE-C8 [1], the result was inactive. For the same molecule, the IC50 against Cholinesterase was 6.34 µM; at Acetylcholinesterase [2], more than 100 µM.
As for `Cc1ccc(-c2noc(-c3cccc(OCC4CCN(Cc5ccc(Br)o5)CC4)c3)n2)cn1`, in the series with HepG2-ARE-C8 [1], the result was inactive. Moreover, the values for the IC50 on Cholinesterase and on Acetylcholinesterase [2] were more than 100 µM and 3.18 µM, respectively.
As to `Cc1ccc(-c2noc(-c3cccc(OCC4CCN(C(=O)c5ccccc5)CC4)c3)n2)cn1`, the outcome in the series with HepG2-ARE-C8 [1] was inactive. Further, the IC50 against Cholinesterase was more than 100 µM; on Acetylcholinesterase [2] it was 59.4 µM.
For `Cc1ccc(-c2noc(-c3ccc(F)c(F)c3)n2)cn1`, the result in the series with Mus musculus [5], in the series on Mus musculus [6], with Mus musculus [7], with Mus musculus [8] and in the series with Mus musculus [9] was Active.
For `Cc1ccc(-c2noc(-c3cccc(OCC4CCN(Cc5ccccc5)CC4)c3)n2)cn1`, the result in the series with HepG2-ARE-C8 [1] was inactive. In addition, the IC50 on Acetylcholinesterase [4] was determined as 0.74 µM; on Cholinesterase, 5.05 µM; on Acetylcholinesterase [2], 0.29 µM.
Consider `Cc1ccc(-c2noc(-c3cccc(OCC4CCN(Cc5ccccn5)CC4)c3)n2)cn1`, for which, in the series with HepG2-ARE-C8 [1], the result was inactive. The half-maximal inhibitory concentration (IC50) on Cholinesterase worked out at 5.03 µM; on Acetylcholinesterase [2], 1.92 µM.
Take `Cc1ccc(-c2noc(-c3cccc(OCC4CCN(Cc5ccccc5F)CC4)c3)n2)cn1`: the result in the series on HepG2-ARE-C8 [1] was inactive. Moreover, the IC50 turned out to be 0.29 µM on Acetylcholinesterase [4], 15.5 µM against Cholinesterase and 0.1 µM against Acetylcholinesterase [2].
For the molecule `Cc1ccc(-c2noc(-c3cccc(OCC4CCN(Cc5ccc(C#N)cc5)CC4)c3)n2)cn1`, the result in the series on HepG2-ARE-C8 [1] was inactive. Further, the values for the IC50 against Cholinesterase and against Acetylcholinesterase [2] were more than 100 µM and 71.4 µM, respectively.
With `Cc1ccc(-c2noc(-c3cccc(OCC4CCN(Cc5cccc(Cl)c5)CC4)c3)n2)cn1`, the result in the series with HepG2-ARE-C8 [1] was inactive. In addition, the IC50 on Cholinesterase was more than 100 µM; against Acetylcholinesterase [2], 2.29 µM.
Regarding `Cc1ccc(-c2noc(-c3cccc(OCC4CCN(Cc5ccccc5Cl)CC4)c3)n2)cn1`, the outcome with HepG2-ARE-C8 [1] was inactive. For the same molecule, the IC50 against Acetylcholinesterase [4] is 0.57 µM; at Cholinesterase, more than 100 µM; against Acetylcholinesterase [2], 0.55 µM.
As to `Cc1ccc(-c2noc(-c3cccc(OCC4CCN(Cc5ccc(F)c(F)c5)CC4)c3)n2)cn1`, the result with HepG2-ARE-C8 [1] was inactive. Further, the IC50 on Cholinesterase amounted to 1.66 µM; at Acetylcholinesterase [2] it was 13.9 µM.
For `Cc1ccc(-c2noc(-c3cccc(OCC4CCN(Cc5cccnc5)CC4)c3)n2)cn1`, in that order: “inactive”, 3.93 µM and 1.28 µM.
For the molecule `Cc1ccc(-c2noc(-c3cccc(OCC4CCCN(C(=O)c5ccccc5)C4)c3)n2)cn1` (configuration not stated), the result with HepG2-ARE-C8 [1] was inactive. Further, the result in the series with HepG2-ARE-C8 [3] was Active. Moreover, the IC50 came out at 13.8 µM against Cholinesterase and 15.9 µM at Acetylcholinesterase [2].
In the case of `Cc1ccc(-c2noc(-c3cccc(OCC4CCCN(Cc5ccccc5F)C4)c3)n2)cn1` (configuration not stated), the outcome in the series with HepG2-ARE-C8 [1] was inactive. The IC50 against Cholinesterase is 17.6 µM; at Acetylcholinesterase [2], 8.14 µM.

B1: Acetylcholinesterase (Homo sapiens), P22303 (protein)
chain: MRPPQCLLHTPSLASPLLLLLLWLLGGGVGAEGREDAELLVTVRGGRLRGIRLKTPGGPVSAFLGIPFAEPPMGPRRFLPPEPKQPWSGVVDATTFQSVCYQYVDTLYPGFEGTEMWNPNRELSEDCLYLNVWTPYPRPTSPTPVLVWIYGGGFYSGASSLDVYDGRFLVQAERTVLVSMNYRVGAFGFLALPGSREAPGNVGLLDQRLALQWVQENVAAFGGDPTSVTLFGESAGAASVGMHLLSPPSRGLFHRAVLQSGAPNGPWATVGMGEARRRATQLAHLVGCPPGGTGGNDTELVACLRTRPAQVLVNHEWHVLPQESVFRFSFVPVVDGDFLSDTPEALINAGDFHGLQVLVGVVKDEGSYFLVYGAPGFSKDNESLISRAEFLAGVRVGVPQVSDLAAEAVVLHYTDWLHPEDPARLREALSDVVGDHNVVCPVAQLAGRLAAQGARVYAYVFEHRASTLSWPLWMGVPHGYEIEFIFGIPLDPSRNYTAEEKIFAQRLMRYWANFARTGDPNEPRDPKAPQWPPYTAGAQQYVSLDLRPLEVRRGLRAQACAFWNRFLPKLLSATDTLDEAERQWKAEFHRWSSYMVHWKNQFDHYSKQDRCSDL
Turning to B1, the Km in series [10] was 0.233 µM.
